Drawing on patent US9346786B2, “Pyrrolidine compounds” (Hoffmann-La Roche Inc., priority 2009, dated 2016), this text covers Ki for nine compounds.

For one assay, the target named is recombinant human NK3 receptor (Homo sapiens (Human), UniProt P29371). The assay is described as follows: biochemical. Conditions: [3H]SR142801, membranes of HEK293 cells transiently expressing recombinant human NK3 receptor; read-out: Data Ki (hNK-3 receptor affinity). In kind it is binding.
Chain of recombinant human NK3 receptor (P29371 whole entry): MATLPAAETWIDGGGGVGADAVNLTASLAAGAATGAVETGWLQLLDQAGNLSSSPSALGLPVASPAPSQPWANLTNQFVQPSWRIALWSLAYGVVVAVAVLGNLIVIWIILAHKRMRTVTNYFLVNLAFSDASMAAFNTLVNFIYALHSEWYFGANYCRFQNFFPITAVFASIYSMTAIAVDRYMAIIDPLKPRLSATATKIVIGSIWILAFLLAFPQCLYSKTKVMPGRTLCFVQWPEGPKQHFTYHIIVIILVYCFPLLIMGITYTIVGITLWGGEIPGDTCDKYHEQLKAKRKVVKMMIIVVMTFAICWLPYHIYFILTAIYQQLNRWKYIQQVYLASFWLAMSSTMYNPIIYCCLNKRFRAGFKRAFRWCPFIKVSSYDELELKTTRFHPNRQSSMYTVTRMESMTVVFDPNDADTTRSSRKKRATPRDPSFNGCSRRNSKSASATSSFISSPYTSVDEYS
For the compound `CCN(C(=O)Oc1ccc(F)cc1)[C@@H]1CN(C(=O)C2CCN(c3ccc(F)cn3)CC2)C[C@H]1c1ccc(Cl)c(F)c1` [Example 46, [(3S,4R)-4-(4-Chloro-3-fluoro-phenyl)-1-(5′-fluoro-3,4,5,6-tetrahydro-2H-[1,2′]bipyridinyl-4-carbonyl)-pyrrolidin-3-yl]-ethyl-carbamic acid 4-fluoro-phenyl ester], the Ki is 1 nM.

Take `CCN(C(=O)Oc1ccc(F)cc1)[C@@H]1CN(C(=O)C2CCN(c3ccc(C)cn3)CC2)C[C@H]1c1ccc(Cl)c(F)c1` [Example 47, [(3S,4R)-4-(4-Chloro-3-fluoro-phenyl)-1-(5′-methyl-3,4,5,6-tetrahydro-2H-[1,2′]bipyridinyl-4-carbonyl)-pyrrolidin-3-yl]-ethyl-carbamic acid 4-fluoro-phenyl ester]: the Ki came to 2 nM.

`CCN(C(=O)Oc1ccc(F)cc1)[C@@H]1CN(C(=O)C2CCN(c3ccc(C#N)cn3)CC2)C[C@H]1c1ccc(F)c(F)c1` [Example 48, [(3S,4R)-1-(5′-Cyano-3,4,5,6-tetrahydro-2H-[1,2′]bipyridinyl-4-carbonyl)-4-(3,4-difluoro-phenyl)-pyrrolidin-3-yl]-ethyl-carbamic acid 4-fluoro-phenyl ester]: the Ki is 2 nM.

Consider `CCN(C(=O)Oc1ccc(F)cc1)[C@@H]1CN(C(=O)C2CCN(c3ccc(Cl)cn3)CC2)C[C@H]1c1ccc(F)c(F)c1` [Example 49, [(3S,4R)-1-(5′-Chloro-3,4,5,6-tetrahydro-2H-[1,2′]bipyridinyl-4-carbonyl)-4-(3,4-difluoro-phenyl)-pyrrolidin-3-yl]-ethyl-carbamic acid 4-fluoro-phenyl ester], for which the Ki was 5 nM.

Take `CCN(C(=O)Oc1ccc(F)cc1)[C@@H]1CN(C(=O)C2CCN(c3ccc(C#N)nc3)CC2)C[C@H]1c1ccc(F)c(F)c1` [Example 51, [(3S,4R)-1-(6′-Cyano-3,4,5,6-tetrahydro-2H-[1,3′]bipyridinyl-4-carbonyl)-4-(3,4-difluoro-phenyl)-pyrrolidin-3-yl]-ethyl-carbamic acid 4-fluoro-phenyl ester]: the Ki amounted to 2 nM.

Take `CCN(C(=O)Oc1ccc(F)cc1)[C@@H]1CN(C(=O)C2CCN(C(=O)C3(C)CC3)CC2)C[C@H]1c1ccc(F)c(F)c1` [Example 52, {(3S,4R)-4-(3,4-Difluoro-phenyl)-1-[1-(1-methyl-cyclopropanecarbonyl)-piperidine-4-carbonyl]-pyrrolidin-3-yl}-ethyl-carbamic acid 4-fluoro-phenyl ester]: the Ki turned out to be 15 nM.

As to `CCN(C(=O)Oc1ccc(F)cc1)[C@@H]1CN(C(=O)C2CCN(c3cc(C#N)ccn3)CC2)C[C@H]1c1ccc(F)c(F)c1` [Example 53, [(3S,4R)-1-(4′-Cyano-3,4,5,6-tetrahydro-2H-[1,2′]bipyridinyl-4-carbonyl)-4-(3,4-difluoro-phenyl)-pyrrolidin-3-yl]-ethyl-carbamic acid 4-fluoro-phenyl ester], the Ki is 16 nM.

As for `CCN(C(=O)Oc1ccc(F)cc1)[C@@H]1CN(C(=O)C2CCN(c3ccc(F)cn3)CC2)C[C@H]1c1ccc(F)c(F)c1` [Example 54, [(3S,4R)-4-(3,4-Difluoro-phenyl)-1-(5′-fluoro-3,4,5,6-tetrahydro-2H-[1,2′]bipyridinyl-4-carbonyl)-pyrrolidin-3-yl]-ethyl-carbamic acid 4-fluoro-phenyl ester], the inhibitory constant (Ki) stood at 7 nM.

The same assay, now with this note: read-out: Data Ki (hNK-3 receptor affinity).
For `CCN(C(=O)Oc1ccc(F)cc1)[C@@H]1CN(C(=O)C2CCN(c3cc(C#N)ccn3)CC2)C[C@H]1c1ccc(Cl)c(F)c1` [Example 45, [(3S,4R)-4-(4-Chloro-3-fluoro-phenyl)-1-(4′-cyano-3,4,5,6-tetrahydro-2H-[1,2′]bipyridinyl-4-carbonyl)-pyrrolidin-3-yl]-ethyl-carbamic acid 4-fluoro-phenyl ester], the Ki worked out at 3 nM.

One may read the Ki as a dissociation constant, usually derived from enzyme kinetics or from competition with a known ligand.
